Test results reported in patent US6656509B1, “Combination of selenium-containing compounds with cytostatics” (Biosyn Arzneimittel GmbH, priority 1998, dated 2003).
Like-named read-outs stand apart in the source and are kept apart here.

Assays:
[1] = oral; cited from earlier work
[2] = cited from earlier work
LXFS 650 = experiment: clonogenic assay (colony forming assay); type: cell-based, human; settings: LXFS 650/9; X199AM
Experimental: (§1) Solid human tumor xenografts growing subcutaneously in serial passages in thymus-aplastic nude mice (NMRI nu/nu strain, obtained from our own breeding facility) were removed under sterile conditions, the cells were mechanically disaggregated and subsequently incubated with an enzyme cocktail consisting of collagenase (1.2-1.8 U/ml, Worthington), DNAse (375 U/ml, Boehringer Mannheim) und hyaluronidase (29 U/ml, Boehringer Mannheim) in RPMI 1640 at 37° C. for 30 minutes. The cell mixture was passed through sieves of 200 μm and 50 μm mesh size and washed thereafter twice with PBS. The percentage of viable cells was determined in a Neubauer counting chamber using trypan blue exclusion.
(§2) The clonogenic assay was performed according to a modified two-layer soft agar assay described by Hamburger and Salmon (Hamburger and Salmon, Science, 197: 461463, 1977). The bottom layer consisted of 0.2 ml Iscoves' Modified Dulbecco's Medium with 20% fetal calf serum and 0.75% agar. 8×10^3 to 1,6×10^4 cells were added to 0.2 ml of the same culture medium together with 0.4% agar and placed in already coated 24-multiwell dishes. Test substances were applied by continuous exposure (drug overlay) in 0.2 ml medium. Every dish included six control wells containing the vehicle- and drug-treated groups in triplicate at six concentrations.
(§3) Cultures were incubated at 37° and 7% CO2 in a humidified atmosphere for 5 to 15 days (depending on the doubling time of the tumor stem cells) and monitored for colony growth using an inverted microscope. Within this period, in vitro tumor growth led to the formation of colonies with a diameter of ≧50 μm. At the time of maximum colony formation counts were performed with an automatic image analysis system (OMNICOM Fas IV, Biosys GmbH). 24 hours prior to this assay, vital colonies were stained with a sterile aqueous solution of 2-(4-iodophenyl)-3-(4-nitrophenyl)-5-phenyltetrazolium chloride (1 mg/ml, 100 μI/well). Drug effects were expressed in terms of the percentage of surviving cells, obtained by comparison of the mean number of colonies in the treated plates with the mean colony count of the untreated controls (test-versus-control-group value, T/C=colony countTreated Group*100/colony countControl Group).
(§4) Coefficient of variation in the control group ≦50%. IC50 and IC70 values were determined by plotting compound concentration versus cell survival rate. Mean IC50 and IC70 values were calculated according to the formula: [formula]
(§5) with x=specific tumor xenograft and n=total number of tumor xenografts studied. If an IC50 or IC70 value could not be determined within the examined dose range, the lowest or highest concentration studied was used for the calculation.

PRXF DU145X = experiment: clonogenic assay (colony forming assay); type: cell-based, human; settings: PRXF DU145X/15, X229AM
Experimental: as §1, §2, §3, §4, §5

RXF 393 = experiment: clonogenic assay (colony forming assay); type: cell-based, human; settings: RXF 393/9; X194AM
Experimental: as §1, §2, §3, §4, §5

RXF 423 = experiment: clonogenic assay (colony forming assay); type: cell-based, human; settings: RXF 423/16; X183AM
Experimental: as §1, §2, §3, §4, §5

MAXF 401NL = experiment: clonogenic assay (colony forming assay); type: cell-based, human; settings: MAXF 401/16, X186AM
Experimental: as §1, §2, §3, §4, §5

MAXF MCF7X = experiment: clonogenic assay (colony forming assay); type: cell-based, human; settings: MAXF MCF7X/28; X218AM
Experimental: as §1, §2, §3, §4, §5

OVXF 899 = experiment: clonogenic assay (colony forming assay); type: cell-based, human; settings: OVXF 899/33; X185AM
Experimental: as §1, §2, §3, §4, §5

O=[Se]([O-])[O-].[Na+].[Na+] [sodium selenite]
intestinal absorption, sometimes [1]: over 90%
plasma selenium ([2]; 8 hours after 10 mg selenium as sodium selenite): 770 μg/I
plasma selenium ([2]; 16 hours after 10 mg selenium as sodium selenite): 430 μg/I
time until selenium level in plasma again reached its initial value ([2]; after 10 mg selenium as sodium selenite): 24 h
dose from which gastrointestinal toxicity was observed (reversible) ([2]; infusion, tumor patients): about 20 mg selenium
selenium level in plasma ([2]; within 30 minutes after 10 mg selenium as sodium selenite, infused, rose from 200 μg/l): 1200 µg/L
Test/control (%) at drug concentration [μM] 1. (LXFS 650): 84%
Test/control (%) at drug concentration [μM] 10. (LXFS 650): 109%
Test/control (%) at drug concentration [μM] 100. (LXFS 650): 16%
Test/control (%) at drug concentration [μM] .001 (LXFS 650): 100%
Test/control (%) at drug concentration [μM] .01 (LXFS 650): 100%
Test/control (%) at drug concentration [μM] .1 (LXFS 650): 98%
Test/control (%) class at drug concentration [μM] 1. (LXFS 650): − (− (T/C ≧ 50%))
Test/control (%) class at drug concentration [μM] 10. (LXFS 650): − (− (T/C ≧ 50%))
Test/control (%) class at drug concentration [μM] 100. (LXFS 650): ++ (++ (10% < T/C < 30%))
Test/control (%) class at drug concentration [μM] .001 (LXFS 650): − (− (T/C ≧ 50%))
Test/control (%) class at drug concentration [μM] .01 (LXFS 650): − (− (T/C ≧ 50%))
Test/control (%) class at drug concentration [μM] .1 (LXFS 650): − (− (T/C ≧ 50%))
Test/control (%) at drug concentration [μM] 1. (PRXF DU145X): 91%
Test/control (%) at drug concentration [μM] 10. (PRXF DU145X): 5%
Test/control (%) at drug concentration [μM] 100. (PRXF DU145X): 0%
Test/control (%) at drug concentration [μM] .001 (PRXF DU145X): 97%
Test/control (%) at drug concentration [μM] .01 (PRXF DU145X): 96%
Test/control (%) at drug concentration [μM] .1 (PRXF DU145X): 92%
Test/control (%) class at drug concentration [μM] 1. (PRXF DU145X): − (− (T/C ≧ 50%))
Test/control (%) class at drug concentration [μM] 10. (PRXF DU145X): +++ (+++ (T/C ≦ 10%))
Test/control (%) class at drug concentration [μM] 100. (PRXF DU145X): +++ (+++ (T/C ≦ 10%))
Test/control (%) class at drug concentration [μM] .001 (PRXF DU145X): − (− (T/C ≧ 50%))
Test/control (%) class at drug concentration [μM] .01 (PRXF DU145X): − (− (T/C ≧ 50%))
Test/control (%) class at drug concentration [μM] .1 (PRXF DU145X): − (− (T/C ≧ 50%))
Test/control (%) at drug concentration [μM] 10. (PRXF DU145X; listed as selenium): < 30%
Test/control (%) at drug concentration [μM] 1. (RXF 393): 31%
Test/control (%) at drug concentration [μM] 10. (RXF 393): 32%
Test/control (%) at drug concentration [μM] 100. (RXF 393): 10%
Test/control (%) at drug concentration [μM] .001 (RXF 393): 62%
Test/control (%) at drug concentration [μM] .01 (RXF 393): 45%
Test/control (%) at drug concentration [μM] .1 (RXF 393): 31%
Test/control (%) class at drug concentration [μM] 1. (RXF 393): + (+ (30% ≦ T/C < 50%))
Test/control (%) class at drug concentration [μM] 10. (RXF 393): + (+ (30% ≦ T/C < 50%))
Test/control (%) class at drug concentration [μM] 100. (RXF 393): +++ (+++ (T/C ≦ 10%))
Test/control (%) class at drug concentration [μM] .001 (RXF 393): − (− (T/C ≧ 50%))
Test/control (%) class at drug concentration [μM] .01 (RXF 393): − (− (T/C ≧ 50%))
Test/control (%) class at drug concentration [μM] .1 (RXF 393): + (+ (30% ≦ T/C < 50%))
Test/control (%) at drug concentration [μM] 1. (RXF 423): 92%
Test/control (%) at drug concentration [μM] 10. (RXF 423): 110%
Test/control (%) at drug concentration [μM] 100. (RXF 423): 0%
Test/control (%) at drug concentration [μM] .001 (RXF 423): 99%
Test/control (%) at drug concentration [μM] .01 (RXF 423): 111%
Test/control (%) at drug concentration [μM] .1 (RXF 423): 120%
Test/control (%) class at drug concentration [μM] 1. (RXF 423): − (− (T/C ≧ 50%))
Test/control (%) class at drug concentration [μM] 10. (RXF 423): − (− (T/C ≧ 50%))
Test/control (%) class at drug concentration [μM] 100. (RXF 423): +++ (+++ (T/C ≦ 10%))
Test/control (%) class at drug concentration [μM] .001 (RXF 423): − (− (T/C ≧ 50%))
Test/control (%) class at drug concentration [μM] .01 (RXF 423): − (− (T/C ≧ 50%))
Test/control (%) class at drug concentration [μM] .1 (RXF 423): − (− (T/C ≧ 50%))
Test/control (%) at drug concentration [μM] 1. (MAXF 401NL): 74%
Test/control (%) at drug concentration [μM] 10. (MAXF 401NL): 66%
Test/control (%) at drug concentration [μM] 100. (MAXF 401NL): 8%
Test/control (%) at drug concentration [μM] .1 (MAXF 401NL): 53%
Test/control (%) class at drug concentration [μM] 1. (MAXF 401NL): − (− (T/C ≧ 50%))
Test/control (%) class at drug concentration [μM] 10. (MAXF 401NL): − (− (T/C ≧ 50%))
Test/control (%) class at drug concentration [μM] 100. (MAXF 401NL): +++ (+++ (T/C ≦ 10%))
Test/control (%) class at drug concentration [μM] .1 (MAXF 401NL): − (− (T/C ≧ 50%))
Test/control (%) at drug concentration [μM] .001 (MAXF 401NL; s result of a dish): 67%
Test/control (%) at drug concentration [μM] .01 (MAXF 401NL; s result of a dish): 81%
Test/control (%) class at drug concentration [μM] .001 (MAXF 401NL; s result of a dish): − (− (T/C ≧ 50%))
Test/control (%) class at drug concentration [μM] .01 (MAXF 401NL; s result of a dish): − (− (T/C ≧ 50%))
Test/control (%) at drug concentration [μM] 1. (MAXF MCF7X): 78%
Test/control (%) at drug concentration [μM] 10. (MAXF MCF7X): 97%
Test/control (%) at drug concentration [μM] 100. (MAXF MCF7X): 0%
Test/control (%) at drug concentration [μM] .001 (MAXF MCF7X): 93%
Test/control (%) at drug concentration [μM] .01 (MAXF MCF7X): 85%
Test/control (%) at drug concentration [μM] .1 (MAXF MCF7X): 90%
Test/control (%) class at drug concentration [μM] 1. (MAXF MCF7X): − (− (T/C ≧ 50%))
Test/control (%) class at drug concentration [μM] 10. (MAXF MCF7X): − (− (T/C ≧ 50%))
Test/control (%) class at drug concentration [μM] 100. (MAXF MCF7X): +++ (+++ (T/C ≦ 10%))
Test/control (%) class at drug concentration [μM] .001 (MAXF MCF7X): − (− (T/C ≧ 50%))
Test/control (%) class at drug concentration [μM] .01 (MAXF MCF7X): − (− (T/C ≧ 50%))
Test/control (%) class at drug concentration [μM] .1 (MAXF MCF7X): − (− (T/C ≧ 50%))
Test/control (%) at drug concentration [μM] 1. (OVXF 899): 70%
Test/control (%) at drug concentration [μM] 10. (OVXF 899): 73%
Test/control (%) at drug concentration [μM] 100. (OVXF 899): 1%
Test/control (%) at drug concentration [μM] .001 (OVXF 899): 80%
Test/control (%) at drug concentration [μM] .01 (OVXF 899): 79%
Test/control (%) at drug concentration [μM] .1 (OVXF 899): 66%
Test/control (%) class at drug concentration [μM] 1. (OVXF 899): − (− (T/C ≧ 50%))
Test/control (%) class at drug concentration [μM] 10. (OVXF 899): − (− (T/C ≧ 50%))
Test/control (%) class at drug concentration [μM] 100. (OVXF 899): +++ (+++ (T/C ≦ 10%))
Test/control (%) class at drug concentration [μM] .001 (OVXF 899): − (− (T/C ≧ 50%))
Test/control (%) class at drug concentration [μM] .01 (OVXF 899): − (− (T/C ≧ 50%))
Test/control (%) class at drug concentration [μM] .1 (OVXF 899): − (− (T/C ≧ 50%))
